Results as given in patent publication US20140011277A1, “NOVEL THERAPEUTIC STRATEGIES FOR IMPROVING AN ANTICANCER TREATMENT” (CENTRE NATIONAL DE LA RECHERCHE SCIENTIFIQUE (CNRS), priority 2010, published 2014).

Columns and labels:
[1] = test system: yeasts expressing human Patched protein; experiment: Resistance of yeasts to doxorubicin (growth, OD at 600 nm over time); type: cell-based, S. cerevisiae; settings: 10 μg/mL doxorubicin in rich medium, 18° C.; yeasts expressing human Patched protein vs K699 control yeasts
Method: Yeasts not expressing human Patched protein (controls) K699 and yeasts expressing human Patched protein were cultured at 18° C. in normal rich medium and in rich medium with 10 μg of added doxorubicin per mL of medium.
The OD of the yeasts at 600 nm is measured over time.

human Patched protein [2] = biological target: T1, human Patched protein (Homo sapiens, UniProt Q13635); experiment: Binding of doxorubicin to Patched protein (quenching of doxorubicin fluorescence on yeast membrane preparations); settings: 50 nM doxorubicin added to 30 μg of membranes; Patched-containing vs K699 control membranes
T1 sequence (Q13635 1-1447): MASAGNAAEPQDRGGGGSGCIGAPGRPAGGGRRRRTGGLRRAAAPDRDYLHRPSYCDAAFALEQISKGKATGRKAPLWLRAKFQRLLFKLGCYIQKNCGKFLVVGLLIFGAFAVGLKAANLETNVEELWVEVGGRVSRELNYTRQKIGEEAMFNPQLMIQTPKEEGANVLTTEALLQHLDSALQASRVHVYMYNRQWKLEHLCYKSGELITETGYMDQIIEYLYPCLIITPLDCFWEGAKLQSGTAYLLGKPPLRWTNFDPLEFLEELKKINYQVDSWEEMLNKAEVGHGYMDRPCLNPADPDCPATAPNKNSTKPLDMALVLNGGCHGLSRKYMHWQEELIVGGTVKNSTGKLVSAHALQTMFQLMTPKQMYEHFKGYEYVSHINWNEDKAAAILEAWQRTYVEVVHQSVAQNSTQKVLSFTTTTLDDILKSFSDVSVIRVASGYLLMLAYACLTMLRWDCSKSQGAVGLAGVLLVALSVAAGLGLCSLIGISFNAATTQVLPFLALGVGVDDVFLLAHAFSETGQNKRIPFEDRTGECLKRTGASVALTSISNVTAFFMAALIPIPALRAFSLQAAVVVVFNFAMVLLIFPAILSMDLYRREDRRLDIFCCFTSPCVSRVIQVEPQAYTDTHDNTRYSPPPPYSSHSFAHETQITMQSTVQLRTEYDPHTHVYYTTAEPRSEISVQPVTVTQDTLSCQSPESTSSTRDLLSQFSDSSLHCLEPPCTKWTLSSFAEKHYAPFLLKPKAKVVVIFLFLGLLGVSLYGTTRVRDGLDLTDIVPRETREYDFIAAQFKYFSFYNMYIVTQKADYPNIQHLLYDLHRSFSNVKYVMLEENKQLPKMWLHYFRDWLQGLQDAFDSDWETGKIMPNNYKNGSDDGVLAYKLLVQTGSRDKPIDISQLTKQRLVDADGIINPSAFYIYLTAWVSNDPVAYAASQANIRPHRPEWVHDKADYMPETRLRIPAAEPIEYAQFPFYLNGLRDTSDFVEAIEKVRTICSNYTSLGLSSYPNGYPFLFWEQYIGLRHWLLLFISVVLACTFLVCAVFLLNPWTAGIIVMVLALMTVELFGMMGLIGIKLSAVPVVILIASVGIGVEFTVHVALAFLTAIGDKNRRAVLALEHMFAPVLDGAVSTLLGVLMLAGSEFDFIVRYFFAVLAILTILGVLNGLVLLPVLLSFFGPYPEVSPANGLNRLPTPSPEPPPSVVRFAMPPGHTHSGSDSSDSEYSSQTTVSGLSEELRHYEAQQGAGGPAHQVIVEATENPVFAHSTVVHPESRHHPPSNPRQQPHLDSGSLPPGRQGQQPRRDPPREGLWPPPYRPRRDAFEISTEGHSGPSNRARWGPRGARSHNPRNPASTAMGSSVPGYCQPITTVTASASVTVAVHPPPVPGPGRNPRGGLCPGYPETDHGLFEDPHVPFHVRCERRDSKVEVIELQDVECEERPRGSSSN
Method: 50 nM of doxorubicin are added to 30 μg of membranes and the doxorubicin fluorescence is measured as a function of time.

human Patched protein [3] = biological target: T1, human Patched protein; experiment: Measurement of the efflux of doxorubicin on yeasts; type: cell-based; set-up: expressed in transfected cells; host or cells: Xenopus laevis oocytes (RNA injection); settings: yeasts loaded 2 hours with 10 μM doxorubicin, supernatant after 20 mins; Patched-expressing vs K699 control
Method: After a centrifugation (5 mins at 6800 g) to remove all cell fragments, the reading of the doxorubicin fluorescence (λex=490+/−10 nm, λem=610+/−10 nm) was carried out on 200 μL of supernatant in a plate reader (FLUOstar, Labtech). • on yeasts: K699 control yeasts and yeasts expressing human Patched protein were cultured at 18° C. up to an OD600 of 7 on a rich medium with 2% of added D-glucose.
The cells are then centrifuged, (5 mins. 3000 g), washed 4 times with water and finally resuspended carefully to an OD600 of 10 in 50 mM NaOH-Hepes buffer (pH 7.0) and incubated for 2 hours with 10 μM of doxorubicin.
After rinsing, the yeasts are resuspended in 50 mM NaOH-Hepes buffer (pH 7.0).
After 20 mins, the yeasts are centrifuged and doxorubicin contained in the supernatant is measured by fluorescence (λex=490+/−10 nm, λem=610+/−10 nm). • On xenopus oocytes: obtaining and preparing the oocytes

human Patched protein [4] = biological target: T1, human Patched protein; experiment: Measurement of the efflux of doxorubicin on xenopus oocytes; type: cell-based; set-up: expressed in transfected cells; host or cells: Xenopus laevis oocytes (RNA injection); settings: oocytes injected with 10 or 20 ng RNA encoding human Patched protein vs non-injected; 100 μM doxorubicin 16 hrs, supernatant after 90 mins
Method: The oocytes are collected by surgery on an Xenopus laevis female anaesthetized with 0.2% of MS222 (tricaine methanesulfonate) in accordance with the procedures recommended by the ethics committee. The oocytes are washed with an MBS saline solution, pH 7.4 (NaCl 85 mM, KCl 1 mM, NaHCO32,4 mM, MgSO40.82 mM, Ca(NO3)20.33 mM, CaCl2 0.41 mM, HEPES 10 mM, NaOH 4.5 mM) supplemented with 50 U/ml of penicillin and 50 μg/ml of streptomycin. The oocytes are then defolliculated by incubation for 16 hrs at 19° C. with 1.8 mg/ml of collagenase then 30 mins with MBS without calcium, and placed in MBS. 50 nL containing 10 or 20 ng of RNA encoding human Patched protein are injected per oocyte. The oocytes are incubated for 3 days at 19° C. in MBS. 4 lots of 10 control oocytes (not injected) and oocytes injected with RNA encoding human Patched protein were incubated for 16 hrs at 19° C. with 100 μM of doxorubicin. After rinsing, the oocytes are placed in MBS. The supernatant is sampled after 90 mins and the doxorubicin fluorescence present in the sample is measured by fluorescence (λex=490+/−10 nm, λem=610+/−10 nm).
The experiments being carried out on 4 lots of 10 control oocytes (non-injected) and oocytes injected with RNAs encoding human Patched protein, the average of the values obtained for the 4 lots is shown.

## COc1cccc2c1C(=O)c1c(O)c3c(c(O)c1C2=O)C[C@@](O)(C(=O)CO)C[C@@H]3O[C@H]1C[C@H](N)[C@H](O)[C@H](C)O1 [doxorubicin]
[1]
  resistance of yeasts to doxorubicin: yeasts expressing human Patched protein resist better than the control yeasts
Human Patched protein [2]
  quenching of doxorubicin fluorescence (binding to Patched protein): rapid and significant quenching of the doxorubicin fluorescence
Human Patched protein [3]
  efflux of doxorubicin (fluorescence of supernatant): increase in the efflux of doxorubicin
Human Patched protein [4]
  efflux of doxorubicin (fluorescence of supernatant): increase in the efflux of doxorubicin
